In patent US11168077B2, “Molecular rotor-based D-amino acids as tools for imaging peptidoglycan biosynthesis” (Indiana University Research and Technology Corporation, priority 2018, dated 2021):

Key:
S. aureus PBP4 [1] = biological target: T1, S. aureus PBP4 (Staphylococcus aureus, UniProt P72355); assay: Nitrocefin assay of PBP4 β-lactamase activity in the presence of antibiotics; type: biochemical; conditions: in the presence of the antibiotic
T1 sequence (P72355 25-431): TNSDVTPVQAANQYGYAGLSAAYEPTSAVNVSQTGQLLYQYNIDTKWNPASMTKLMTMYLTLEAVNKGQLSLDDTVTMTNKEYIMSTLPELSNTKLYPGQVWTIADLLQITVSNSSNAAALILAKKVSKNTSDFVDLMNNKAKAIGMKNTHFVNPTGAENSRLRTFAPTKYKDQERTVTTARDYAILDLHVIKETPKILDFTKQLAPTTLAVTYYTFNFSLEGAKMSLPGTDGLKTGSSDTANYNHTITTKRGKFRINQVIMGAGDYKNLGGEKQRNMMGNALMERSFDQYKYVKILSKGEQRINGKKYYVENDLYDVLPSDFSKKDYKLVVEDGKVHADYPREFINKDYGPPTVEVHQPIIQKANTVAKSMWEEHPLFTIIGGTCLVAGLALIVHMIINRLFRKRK
Description: FIG. 12F depicts β-lactamase activity of S. aureus PBP4 in the presence of antibiotics. Nitrocefin degradation by PBP4 results in an increase of absorbance at 500 nm, which is used to measure β-lactamase activity. Low activity stands for a strong inhibition effect of the antibiotics toward PBP4, and vice versa. Values are normalized to the “no antibiotic” sample.
(§1) We further evaluated the utility of this assay for in vitro high-throughput screening for antibiotics. We tested various antibiotics (0.1 equiv. to the substrate) and measured the initial rate of fluorescence increase (FIG. 12E). […] To further confirm the inhibitory effect of these β-lactams toward S. aureus PBP4, we performed a Nitrocefin assay, which tests PBP's β-lactamase activity, in the presence of the antibiotics. […] We also note that this assay can be conducted in an end-point manner, providing an efficient way to test a large number of samples since only a single measurement is required per sample. End-point assays potentially enable high-throughput applications for drug screening and transpeptidation reaction studies.

S. aureus PBP4 [2] = biological target: T1, S. aureus PBP4; assay: In vitro real-time D,D-transpeptidation assay using Rf470 and diacetyl-L-lysine-D-alanine-D-alanine substrate; type: biochemical; conditions: for Effect on initial rate of fluorescence increase (PBP4 enzyme reaction): antibiotics 0.1 equiv. to the substrate; for Effect of added antibiotic on D,D-transpeptidation activity (fluorescence signal increase): antibiotic added to Rf470/substrate/PBP4 reaction
Description: FIG. 12A depicts an exemplary scheme for the assay procedure for in vitro D,D-transpeptidation assays using Rf470 and isolated S. aureus PBP4.
FIG. 12E depicts screening of antibiotic effect on S. aureus PBP4 activity. Kanamycin and Chloramphenicol: ribosome activity inhibitors; Piperacillin, Ampicillin, Penicillin G, Carbenicillin and Cefoxitin are β-lactam antibiotics. A 1:10 ratio of antibiotics to the substrate was used.
We took advantage of the fact that FMR-DAAs are fluorogenic probes that fluoresce upon PG incorporation to develop a continuous, spectrophotometric assay to monitor the formation of transpeptidation product without the need of quenching and purification. The components of the assay included FMR-DAA probes as the fluorescence reporter, synthetic diacetyl-L-lysine-D-alanine-D-alanine as the substrate (acyl donor) and Staphylococcus aureus PBP4 enzyme. S. aureus PBP4 is known to have D,D-transpeptidation activity responsible for the highly cross-linked PG layer in staphylococci, as well as β-lactamase activity to degrade penicillin-like antibiotics.
Rf470, the synthetic substrate and S. aureus PBP4 were incubated in a 96-well plate and the emission fluorescence was measured overtime using a plate reader (5-minute interval, 1 hour in total, FIG. 12A). […] The formation of cross-linked product was confirmed by reverse-phase HPLC and high-resolution mass spectrometry (FIG. 12C, D).
as §1

bacterial PG = assay: Wash-free labeling of bacterial PG with FMR-probe-D-Lys conjugates, fluorescence microscopy; type: cell-based
Description: FIG. 3E depicts exemplary labeling of bacterial PG with HADA probe (panel (i)) and FMR-probe-D-Lys conjugates having the FMR probe moiety of formula (I), wherein R^1 consists of a —CN moiety (denoted as “Rot1DL” (panel (ii))) without washing prior to fluorescence. Compared to conventional FDAAs (e.g., HADA), FMR-DAAs eliminate the need to wash excess probe.
The presence of the carboxylic acid provides a site for covalent coupling of the FMR-probe to an available amino group on a D-amino acid backbone, such as D-amino-Ala or D-Lys. As FMR-probes having R^1 consist of a cyano moiety provide slight affinity for bacterial membranes, result in low levels of nonspecific labeling and some instability of the α,β-unsaturated malononitrile moiety under typical experimental conditions, such FMR-probes are less preferred for use. In such cases, FMR-probes having R^1 consisting of a carboxylic acid can prevent non-specific membrane binding and increase stability of the probe.

[3] = Measurement of viscosity sensitivity of FMR-DAAs in PBS-glycerol; type: physicochemical; conditions: free probe 0.1 mM in 1×PBS containing 0-80% glycerol, pH 7.4
Procedure: For free FMR-DAAs measurement, FMR-DAAs (100 mM stock solution, DMSO) was diluted in PBS-glycerol solution (1×PBS containing 0%, 20%, 40%, 50%, 60% and 80% glycerol, pH 7.4) to a final concentration of 0.1 mM. The solutions were transferred into 96-well micro-plate and the fluorescence was measure at corresponding Em wavelength mentioned above using SpectraMax M2 plate reader (corresponding Ex wavelength was used). The viscosity sensitivity was calculated using the following equation, where r is viscosity of the solvents, I is the emission intensity of the FMR-DAAs, C is a constant depending on the temperature, and x is the viscosity sensitivity (Zhou el, EJOC, 2011, 4773). The Ig, 50%/Iw value represents the ratio of fluorescent intensity of the 50% glycerol sample to that of the 0% glycerol sample.

[4] = Quantum yield measurement (fluorescein standard); type: physicochemical; conditions: PBS (pH 7.4) containing 50% glycerol; fluorescein as standard
[5] = UV-Vis spectra and calibration curve of FMR-DAAs (excitation/emission maxima, absorptivity); type: physicochemical; parameters: Absorptivity (ε): unit not given here; conditions: for Max. λEm / Max. λEx: PBS (pH 7.4) containing 50% glycerol, scan range 350 to 800 nm; for Absorptivity (ε): PBS (pH 7.4), Beer's Law
Procedure: The excitation and emission wavelengths of FMR-DAAs were measured by SpectraMax M2 plate reader using disposable cuvette (polymethyl methacrylate). UV-Vis spectra of FMR-DAAs were measured by scanning within a range from 350 to 800 nm with an increment of 1 nm. The wavelength at maximum absorbance (Ex) and emission (Em) of FMR-DAAs were recorded.
For plotting calibration curves, FMR-DAAs (100 mM stock solution, DMSO) were diluted into 1×PBS (pH 7.4) and the corresponding A. absorbance of FMR-DAAs was measured as a function of concentration (0.1, 0.05, 0.025 and 0.0125 mM). The absorptivity was calculated as described by Beer's Law. The spectra of molecular rotor designs are illustrated in FIG. 7 (panels (i)-(vi)).

[6] = Measurement of thermal stability of FMR-DAAs; type: physicochemical; conditions: PBS (pH 7.4), 24-hours incubation at 60° C.
Procedure: FMR-DAAs (100 mM stock solution, DMSO) was diluted with 1×PBS (pH7.4) to a final concentration of 0.05 mM. The FMR-DAAs solution was then incubated at 60° C. and kept from light exposure. […]

[7] = test system: LdtA, encoded by V. cholerae vc1268; assay: In vitro FMR-DAA assay with L,D-transpeptidase and synthetic tetrapeptide (diacyl-L-Ala-D-Glu-L-Lys-D-Ala); type: biochemical; conditions: Rf470 + LdtA + synthetic tetrapeptide
Description: (§2) In addition to PBPs, we tested the in vitro assay in other classes of transpeptidases: L,D-transpeptidase (Ldts) and Sortases. It is known that LdtA, encoded by V. cholerae vc1268, is responsible for 3′-3′ cross-linkage formation. […] On the other hand, S. aureus Sortase A (SrtA) is responsible for anchoring surface proteins to PG through a sequence-specific transpeptidation reaction. It recognizes a conserved protein LPXTG motif, and cross-links it with PG pentaglycine in S. aureus. […] Control experiments in the absence of the substrate led to no signal change.

[8] = biological target: S. aureus Sortase A (SrtA) (Staphylococcus aureus, UniProt Q2FV99); assay: In vitro FMR-DAA assay with Sortase A and synthetic pentapeptide motif (LPETG); type: biochemical
Chain of S. aureus Sortase A (SrtA) (Q2FV99 whole entry): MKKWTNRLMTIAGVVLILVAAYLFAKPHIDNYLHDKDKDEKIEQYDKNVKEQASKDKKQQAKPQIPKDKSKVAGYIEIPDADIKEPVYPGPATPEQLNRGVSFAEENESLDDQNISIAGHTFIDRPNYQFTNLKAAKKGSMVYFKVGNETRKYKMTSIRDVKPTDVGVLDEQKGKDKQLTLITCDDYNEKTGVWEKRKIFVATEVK
Description: as §2

CCN1CCN(C(=O)N[C@@H](C(=O)N[C@@H]2C(=O)N3[C@@H]2SC(C)(C)[C@@H]3C(=O)O)c2ccccc2)C(=O)C1=O [Piperacillin]
Inhibition of PBP4 β-lactamase activity (in words) (S. aureus PBP4 [1]): did not inhibit PBP4s β-lactamase activity effectively | Effect on initial rate of fluorescence increase (PBP4 enzyme reaction) (S. aureus PBP4 [2]): did not have a significant effect

CC1(C)S[C@@H]2[C@H](NC(=O)[C@H](N)c3ccccc3)C(=O)N2[C@H]1C(=O)O [Ampicillin]
Inhibition of PBP4 β-lactamase activity (in words) (S. aureus PBP4 [1]): did not inhibit PBP4s β-lactamase activity effectively | Effect on initial rate of fluorescence increase (PBP4 enzyme reaction) (S. aureus PBP4 [2]): partial inhibition

N#CC(C#N)=Cc1ccc2c(c1)CCCN2CCC(=O)NCCCC[C@@H](N)C(=O)O [Rotor No. 1, N6-(3-(6-(2,2-dicyanovinyl)-3,4-dihydroquinolin-1(2H)-yl)propanoyl)-D-lysine]
Non-specific affinity to other cellular structures / membranes (bacterial PG; FIG. 3G, no washing): low non-specific affinity to other cellular structures | Incorporation into PG sacculi (bacterial PG; labeled bacterial PG, FIG. 3F): covalently incorporated into PG sacculi

CC1(C)S[C@@H]2[C@H](NC(=O)C(C(=O)O)c3ccccc3)C(=O)N2[C@H]1C(=O)O (some centres unmarked) [Carbenicillin]
Effect on initial rate of fluorescence increase (PBP4 enzyme reaction) (S. aureus PBP4 [2]): inhibited the enzyme reaction almost completely

CO[C@@]1(NC(=O)Cc2cccs2)C(=O)N2C(C(=O)O)=C(COC(N)=O)CS[C@@H]21 [Cefoxitin]
Effect of added antibiotic on D,D-transpeptidation activity (fluorescence signal increase) (S. aureus PBP4 [2]): total inhibition | Effect on initial rate of fluorescence increase (PBP4 enzyme reaction) (S. aureus PBP4 [2]): inhibited the enzyme reaction almost completely

N#C/C(=C\c1ccc2c(c1)CCCN2CCC(=O)NCCCC[C@@H](N)C(=O)O)C(=O)O [Rf420, (E)-N6-(3-(6-(2-carboxy-2-cyanovinyl)-3,4-dihydroquinolin-1(2H)-yl)propanoyl)-D-lysine]
Viscosity sensitivity (χ) [3]: 0.683 ± 0.013 | Quantum Yield (ϕ) [4]: 0.012 | Max. λEm [5]: 490 | Max. λEx [5]: 420 | Absorptivity (ε) [5]: 19761 | Thermo-stability (signal retention of absorbance vs initial value) [6]: 99.8 ± 1.2%

N#CC(=Cc1ccc(-c2ccc3c(c2)CCCN3CCC(=O)O)s1)C(=O)NCCCCC(N)C(=O)O (stereo in doubt) [Rf490, (E)-N^6-(3-(5-(1-(2-carboxyethyl)-1,2,3,4-tetrahydroquinolin-6-yl)thiophen-2-yl)-2-cyanoacryloyl)-L-lysine]
Viscosity sensitivity (χ) [3]: 0.67 ± 0.003 | Quantum Yield (ϕ) [4]: 0.035 | Red-shift in Max. λEX compared to Rf470 [5]: 20 nm | Max. λEm [5]: 660 | Max. λEx [5]: 490 | Absorptivity (ε) [5]: 25409 | Thermo-stability (signal retention of absorbance vs initial value) [6]: 96.9 ± 9.8%

N#C/C(=C\c1ccc(-c2ccc3c(c2)CCCN3CCC(=O)NCCCC[C@@H](N)C(=O)O)s1)C(=O)O [Rf470, (E)-N6-(3-(6-(5-(2-carboxy-2-cyanovinyl)thiophen-2-yl)-3,4-dihydroquinolin-1(2H)-yl)propanoyl)-D-lysine]
Viscosity sensitivity (χ) [3]: 0.642 ± 0.022 | Quantum Yield (ϕ) [4]: 0.042 | Fluorescence signal over time with LdtA [7]: time-lapse increase of fluorescence signal | Max. λEm [5]: 640 | Max. λEx [5]: 470 | Absorptivity (ε) [5]: 33106 | Rf470 signal over time with Sortase A [8]: increase of Rf470 signal over time | Probe fluorescence intensity over time (D,D-transpeptidation signal) (S. aureus PBP4 [2]; probe + synthetic substrate + S. aureus PBP4, 96-well plate, 5-minute interval, 1 hour): increase in fluorescence intensity overtime | Thermo-stability (signal retention of absorbance vs initial value) [6]: 99.4 ± 1.4%

CC1(C)S[C@@H]2[C@H](NC(=O)Cc3ccccc3)C(=O)N2[C@H]1C(=O)O [Penicillin G]
Effect on initial rate of fluorescence increase (PBP4 enzyme reaction) (S. aureus PBP4 [2]): partial inhibition

O=C(N[C@H](CO)[C@H](O)c1ccc([N+](=O)[O-])cc1)C(Cl)Cl [Chloramphenicol]
Effect of added antibiotic on D,D-transpeptidation activity (fluorescence signal increase) (S. aureus PBP4 [2]): comparable to the non-treated sample

NC(CNC(=O)c1cc2ccc(O)cc2oc1=O)C(=O)O (centres unmarked) [HADA, reference compound]
Viscosity sensitivity (χ) [3]: 0.025 ± 0.003 | Max. λEm [5]: 450 | Max. λEx [5]: 400 | Absorptivity (ε) [5]: 109538 | Thermo-stability (signal retention of absorbance vs initial value) [6]: 80.0 ± 1.1%
